What was measured:
[1] = biological target: T1, plasma-derived (pd-) human Factor VIII (FVIII) (Homo sapiens, UniProt P00451); test: Binding of 125I-labeled pd-FVIII to peptides immobilized on Toyopearl AF-Epoxy-650M resin (micro-beads assay); conditions: Table 1
T1 construct: from tissue; host or cells: human blood plasma (FVIII concentrate)
Description: Peptides P1 to P25 were immobilized on the Toyopearl AF-Epoxy-650M resin (Tosoh Biosep) as described by Jungbauer et al. For immobilization, 2.5 mg of each peptide was dissolved in 0.25 mL of the immobilization buffer (0.2 M sodium bicarbonate, pH 10.3), and 0.036 g of the dry resin powder (corresponding to 0.125 mL of swollen resin) was added, followed by incubation of the mixture with gentle rotation for 48 hours. Upon incubation for 48 hours the resin was washed once with immobilization buffer, once with 1 M NaCl and then 3 times with binding buffer, and binding of ^125I-labeled pd-FVIII to the peptide-coated and control resin was tested. The coupling density of each peptide in each of the reported experiments was as mentioned in Table 1. The control 0.25 mL portion of the resin was similarly treated in parallel experiment in the absence of peptide and was subsequently used as a control (designated as Background) in ^125I-pd-FVIII binding experiments. ^125I-pd-FVIII Bound/Background ratios were calculated as the amount of ^125I-pd-FVIII, bound to an immobilized peptide, divided by that bound to uncoated control resin, prepared as described above. This ratio represents a Signal/Noise ratio for the micro-beads assay, since ^125I-pd-FVIII bound to peptide represents the signal value and ^125I-pd-FVIII bound to peptide-uncoated resin represents the background (noise) value.
Plasma-derived (pd-) human Factor VIII (FVIII) was purified from concentrate by immunoaffinity chromatography on an anti-FVIII monoclonal antibody column followed by subsequent concentration of pd-FVIII by ion-exchange chromatography using Resource Q HR5/5 column. To separate FVIII from vWf, concentrate was incubated in 0.35 M NaCl, 0.04 M CaCl2, prior to affinity purification.
Trace amounts of vWf, which are potentially present in pd-FVIII preparation, were removed by passing pd-FVIII preparation through the column with anti-vWf high affinity monoclonal antibody, immobilized at the density 1.4 mg per mL of resin.
Ten μg of purified pd-FVIII were iodinated using lactoperoxidase beads and 0.5 mCi of Na^125I.
(§1) The resin with immobilized peptides was washed in the binding buffer (0.01 M Hepes, 0.1 M NaCl, 5 mM CaCl2, 0.01% Tween-80). Subsequently, the resin was diluted in the binding buffer as 1:7 slurry and aliquoted into Eppendorf tubes (40 μl per tube). ^125I-pd-FVIII (100000 cpm in 10 μl) was added to the tubes and the volume of the mixture was adjusted to 100 μl by adding 50 μl of the binding buffer containing 4% BSA to give a 2% final concentration of BSA. After 2 hours of incubation at room temperature on a rotator, the samples were washed 4 times in the binding. After each wash the tubes were centrifuged at 5000 rpm for 1 min in an Eppendorf microcentrifuge, supernatant was discarded, and the resin was re-suspended in the washing buffer, followed by centrifugation under the same conditions. After four washes the tubes with pellet without supernatant were counted for radioactivity. The resin without peptide was processed similarly to account for non-specific pd-FVIII binding to tubes and resin itself, and the radioactivity in this control tube was considered as a background value. Since ^125I-pd-FVIII contains the some fraction damaged during radiolabeling, binding was calculated as a percent of maximal achievable binding, determined in separate experiment with anti-FVIII Mab 8860-coated resin.
All the measurements were performed in duplicates. Each experiment was performed using two independently prepared immobilized peptide samples. The data presented in each figure are the mean values of the four determinations: duplicate determination in the two assays performed with beads on which peptides were independently immobilized on the different days. […]

[2] = biological target: T2, ReFacto® (recombinant form of FVIII) (Homo sapiens, UniProt P00451, DEL763-1656); test: Binding of 125I-ReFacto to peptide-coated resin; conditions: resin coated with peptide
T2 construct: purchased Wyeth-Ayerst Pharmacia and Upjohn; host or cells: CHO cells
T2 sequence (P00451 with tags, fused parts or gaps DEL763-1656 limits assumed): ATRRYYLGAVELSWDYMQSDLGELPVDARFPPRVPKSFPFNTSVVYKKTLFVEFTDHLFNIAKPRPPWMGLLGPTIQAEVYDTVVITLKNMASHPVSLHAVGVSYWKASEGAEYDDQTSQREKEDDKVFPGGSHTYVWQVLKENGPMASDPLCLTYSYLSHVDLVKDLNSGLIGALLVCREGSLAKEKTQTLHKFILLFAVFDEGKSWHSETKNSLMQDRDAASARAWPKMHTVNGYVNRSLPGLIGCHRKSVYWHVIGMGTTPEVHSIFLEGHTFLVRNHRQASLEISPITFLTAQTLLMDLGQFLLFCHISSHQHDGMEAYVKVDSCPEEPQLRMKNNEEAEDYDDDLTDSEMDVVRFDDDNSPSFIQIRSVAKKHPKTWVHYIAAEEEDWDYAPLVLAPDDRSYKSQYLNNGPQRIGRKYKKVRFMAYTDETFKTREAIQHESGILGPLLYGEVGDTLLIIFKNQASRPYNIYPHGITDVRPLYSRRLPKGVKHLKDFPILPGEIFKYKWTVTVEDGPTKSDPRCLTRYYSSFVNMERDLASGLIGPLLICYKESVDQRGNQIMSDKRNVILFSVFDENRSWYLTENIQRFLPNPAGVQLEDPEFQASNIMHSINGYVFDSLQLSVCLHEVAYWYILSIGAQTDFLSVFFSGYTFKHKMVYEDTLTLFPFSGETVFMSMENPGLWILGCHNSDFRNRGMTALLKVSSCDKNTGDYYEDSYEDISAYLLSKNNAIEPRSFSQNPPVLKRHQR
T2 sequence (P00451 1668-2351 limits assumed): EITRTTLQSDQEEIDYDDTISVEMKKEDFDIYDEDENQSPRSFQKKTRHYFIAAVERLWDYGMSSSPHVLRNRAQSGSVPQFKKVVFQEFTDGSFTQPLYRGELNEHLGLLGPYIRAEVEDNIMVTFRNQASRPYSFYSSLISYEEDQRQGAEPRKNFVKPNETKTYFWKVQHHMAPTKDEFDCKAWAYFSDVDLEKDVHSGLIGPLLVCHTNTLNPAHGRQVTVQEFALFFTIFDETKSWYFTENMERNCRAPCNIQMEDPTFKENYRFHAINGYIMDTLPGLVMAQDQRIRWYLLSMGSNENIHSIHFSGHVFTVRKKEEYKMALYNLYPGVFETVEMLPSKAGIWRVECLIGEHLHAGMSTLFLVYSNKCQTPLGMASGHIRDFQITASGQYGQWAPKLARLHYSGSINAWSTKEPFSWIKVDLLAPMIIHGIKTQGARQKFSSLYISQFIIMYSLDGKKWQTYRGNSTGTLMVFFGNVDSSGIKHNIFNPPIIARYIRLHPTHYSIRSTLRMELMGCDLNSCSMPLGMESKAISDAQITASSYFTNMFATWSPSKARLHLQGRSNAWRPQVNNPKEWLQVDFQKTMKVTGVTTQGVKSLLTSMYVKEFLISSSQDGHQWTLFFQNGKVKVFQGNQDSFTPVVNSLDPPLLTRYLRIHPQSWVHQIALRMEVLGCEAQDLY
Description: as §1, with “After each wash the tubes were centrifuged at 5000 rpm for 1 min in an Eppendorf microcentrifuge, supernatant was discarded, and the resin was re-suspended in the washing buffer, followed by centrifugation under the same conditions.” left out, “resin. […]” for “resin.”
(§2) Kogenate® and ReFacto® were iodinated in the same manner as described in Example 1 with respect to the pd-FVIII. Protein binding was measured using the same procedures as described in Example 1 above.

[3] = biological target: T3, Kogenate® (recombinant form of FVIII) (Homo sapiens, UniProt P00451); test: Binding of 125I-Kogenate to peptide-coated resin; conditions: resin coated with peptide
T3 construct: purchased Bayer; host or cells: baby hamster kidney (BHK) cells
Description: as §1, with “After each wash the tubes were centrifuged at 5000 rpm for 1 min in an Eppendorf microcentrifuge, supernatant was discarded, and the resin was re-suspended in the washing buffer, followed by centrifugation under the same conditions.” left out, “resin. […]” for “resin.”
as §2

T1 sequence (P00451 20-1667 limits assumed, one chain of several): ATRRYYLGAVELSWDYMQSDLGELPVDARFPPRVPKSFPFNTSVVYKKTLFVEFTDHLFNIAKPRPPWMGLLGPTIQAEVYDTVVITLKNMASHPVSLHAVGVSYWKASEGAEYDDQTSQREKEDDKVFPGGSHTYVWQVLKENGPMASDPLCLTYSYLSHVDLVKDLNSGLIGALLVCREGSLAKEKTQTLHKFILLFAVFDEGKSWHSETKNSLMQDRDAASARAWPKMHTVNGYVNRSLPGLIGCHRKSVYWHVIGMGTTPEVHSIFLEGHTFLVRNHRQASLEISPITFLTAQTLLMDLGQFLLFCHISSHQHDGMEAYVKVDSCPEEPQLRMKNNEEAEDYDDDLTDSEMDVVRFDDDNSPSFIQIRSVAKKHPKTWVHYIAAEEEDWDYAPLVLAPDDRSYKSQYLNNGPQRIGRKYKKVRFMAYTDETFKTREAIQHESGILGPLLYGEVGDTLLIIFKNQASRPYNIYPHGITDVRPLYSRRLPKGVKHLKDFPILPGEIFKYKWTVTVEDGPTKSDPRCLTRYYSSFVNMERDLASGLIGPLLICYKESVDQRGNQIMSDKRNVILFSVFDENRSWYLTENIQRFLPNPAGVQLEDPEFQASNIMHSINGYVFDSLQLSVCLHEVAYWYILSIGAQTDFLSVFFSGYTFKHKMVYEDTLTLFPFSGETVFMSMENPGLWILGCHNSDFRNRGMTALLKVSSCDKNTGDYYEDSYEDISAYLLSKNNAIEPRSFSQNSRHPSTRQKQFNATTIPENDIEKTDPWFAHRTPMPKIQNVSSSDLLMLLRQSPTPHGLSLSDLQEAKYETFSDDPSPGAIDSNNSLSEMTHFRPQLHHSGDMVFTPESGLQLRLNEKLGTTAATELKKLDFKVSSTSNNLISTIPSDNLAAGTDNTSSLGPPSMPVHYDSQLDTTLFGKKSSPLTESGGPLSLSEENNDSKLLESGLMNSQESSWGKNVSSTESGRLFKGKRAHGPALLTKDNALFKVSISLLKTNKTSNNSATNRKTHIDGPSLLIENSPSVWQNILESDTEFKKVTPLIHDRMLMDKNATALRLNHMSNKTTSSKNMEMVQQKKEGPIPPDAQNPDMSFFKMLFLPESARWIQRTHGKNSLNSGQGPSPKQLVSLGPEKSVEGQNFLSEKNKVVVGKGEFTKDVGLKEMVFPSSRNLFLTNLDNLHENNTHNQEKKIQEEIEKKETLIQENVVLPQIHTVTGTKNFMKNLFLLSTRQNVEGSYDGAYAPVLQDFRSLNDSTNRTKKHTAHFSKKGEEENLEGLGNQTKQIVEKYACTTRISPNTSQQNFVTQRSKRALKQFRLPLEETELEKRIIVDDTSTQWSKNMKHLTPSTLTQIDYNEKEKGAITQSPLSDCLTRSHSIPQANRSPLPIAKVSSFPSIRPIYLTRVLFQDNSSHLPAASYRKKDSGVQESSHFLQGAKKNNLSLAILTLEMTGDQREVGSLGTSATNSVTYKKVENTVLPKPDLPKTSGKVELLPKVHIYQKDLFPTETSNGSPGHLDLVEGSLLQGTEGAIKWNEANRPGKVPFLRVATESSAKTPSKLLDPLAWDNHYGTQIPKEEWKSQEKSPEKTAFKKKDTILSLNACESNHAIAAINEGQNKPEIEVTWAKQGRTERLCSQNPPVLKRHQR
T3 sequence (P00451 20-1667 limits assumed, one chain of several): as above

Binding, rel. to control ([1]; 125I-pd-FVIII Bound/Background ratio versus uncoated control resin): 39.3 ± 0.3
% Binding pdFVIII ([1]; immobilized on Toyopearl AF-Epoxy-650M, percent of maximal achievable binding (anti-FVIII Mab 8860-coated resin), mean of four determinations): 75.4 ± 0.6%
125I-ReFacto binding (% of total) [2]: 54.9 ± 6.3 % of total
125I-Kogenated FS binding (% of total) [3]: 49.6 ± 1.7 % of total
Substance: IAA-Glu-Tyr-Cys-OH [Compound P15]

Source: patent US20090215025A1, “SMALL PEPTIDIC AND PEPTIDO-MIMETIC AFFINITY LIGANDS FOR FACTOR VIII AND FACTOR VIII-LIKE PROTEINS” (TECHNISCHE UNIVERSITAT MUNCHEN, priority 2005, published 2009)
